Key:
Assay in all cases: relative viability (nuclei count vs DMSO), 5 days (fraction); higher = more cells survive
[1] = compound: CCn1c(-c2nonc2N)nc2cnc(Oc3cccc(NC(=O)c4ccc(OCCN5CCOCC5)cc4)c3)cc21 + COc1cc2c(Oc3ccc(NC(=O)C4(C(=O)Nc5ccc(F)cc5)CC4)cc3F)ccnc2cc1OCCCN1CCOCC1 [Foretinib] (partner 0.25 µM)
In short: (§1)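 Lung cancer cell lines, seeded in 1536-well plates, were treated the following day by pin tool with a single drug or with five library-drug doses (not always all listed) in √10 steps on top of a fixed anchor-drug dose. Cells were fixed and nuclei stained in one step after 5 days, and nuclei were counted. Relative viability is the nuclei count for treated wells divided by that for vehicle wells, reported as medians of duplicate plates.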

[2] = compound: CCn1c(-c2nonc2N)nc2cnc(Oc3cccc(NC(=O)c4ccc(OCCN5CCOCC5)cc4)c3)cc21 + Nc1nc2[nH]cc(CCc3ccc(C(=O)N[C@@H](CCC(=O)O)C(=O)O)cc3)c2c(=O)[nH]1 [Pemetrexed] (partner 0.2 µM)
In short: as §1

[3] = compound: N=C1NC(=O)/C(=C/c2ccc(O)cc2)S1 [Mirin] + Cc1nc(Nc2ncc(C(=O)Nc3c(C)cccc3Cl)s2)cc(N2CCN(CCO)CC2)n1 [Dasatinib] (partner 0.075 µM)
In short: as §1

[4] = compound: N=C1NC(=O)/C(=C/c2ccc(O)cc2)S1 [Mirin] + Nc1nc2[nH]cc(CCc3ccc(C(=O)N[C@@H](CCC(=O)O)C(=O)O)cc3)c2c(=O)[nH]1 [Pemetrexed] (partner 0.2 µM)
In short: as §1

Cell Line	relative viability ([1]; first compound 0.04 µM)	relative viability ([1]; first compound 0.1265 µM)	relative viability ([1]; first compound 0.4 µM)	relative viability ([1]; first compound 1.265 µM)	relative viability ([1]; first compound 4 µM)	relative viability ([2]; first compound 0.04 µM)	relative viability ([2]; first compound 0.1265 µM)	relative viability ([2]; first compound 0.4 µM)	relative viability ([2]; first compound 1.265 µM)	relative viability ([2]; first compound 4 µM)	relative viability ([3]; first compound 0.25 µM)	relative viability ([3]; first compound 0.7906 µM)	relative viability ([3]; first compound 2.5 µM)	relative viability ([3]; first compound 7.906 µM)	relative viability ([3]; first compound 25 µM)	relative viability ([4]; first compound 0.25 µM)	relative viability ([4]; first compound 0.7906 µM)	relative viability ([4]; first compound 2.5 µM)	relative viability ([4]; first compound 7.906 µM)	relative viability ([4]; first compound 25 µM)
HCC-827	1.11	1.05	0.996	0.877	0.751	0.27	0.261	0.266	0.267	0.285	0.407	0.336	0.301	0.451	0.334	0.246	0.258	0.224	0.254	0.282
HOP-62	1.12	1.22	1.02	0.864	0.789	0.319	0.309	0.284	0.228	0.252	0.699	0.756	0.743	0.671	0.56	0.36	0.286	0.316	0.288	0.361
IA-LM	1.65	1.39	1.13	1.06	0.898															
LC-2-ad	1	0.927	0.784	0.529	0.687	0.257	0.269	0.241	0.199	0.206	0.588	0.504	0.668	0.386	0.368	0.266	0.271	0.254	0.288	0.264
LCLC-97TM1	1.03	1.04	0.813	0.902	0.937	0.228	0.196		0.192	0.18	0.773	0.816	0.868	0.737	0.765	0.161	0.128	0.14	0.149	0.127
LCLC-103H	0.777	0.91	0.798	0.662	0.624	0.394	0.444	0.36	0.345	0.419	0.44	0.469	0.491	0.348	0.422	0.441	0.523	0.487	0.425	0.435
LK-2	1.23	1.19	1.28	1.26	1.28	0.308	0.354	0.151	0.139	0.265	0.275		0.272	0.194	0.178	0.129		0.257	0.164	0.257
LOU-NH91	0.92	0.83	0.697	0.47	0.525	0.371	0.355	0.355	0.288	0.356	0.549	0.564	0.535	0.477	0.65	0.375	0.389	0.357	0.399	0.376
LU99A	0.872	0.886	0.853	0.493	0.476	0.227	0.167	0.168	0.163	0.158	0.574	0.564	0.509	0.423	0.531	0.159	0.204	0.186	0.137	0.17
LXF-289	1.06	1.02	0.982	0.936	0.882	0.972	0.974	0.918	0.856	0.795	0.26	0.214	0.202	0.207	0.202	0.902	0.856	0.923	0.791	0.821
NCI-H23	1.05	0.909	0.978	0.853	0.862	0.864	0.74	0.442	0.532	0.431	0.934		0.77	0.604	0.555	0.782		0.643	0.598	0.541
NCI-H322M	1.51	1.24	1.22	0.71	0.8	0.714	0.716	0.617	0.47	0.559	0.264	0.258	0.246	0.268	0.244	0.633	0.528	0.615	0.713	0.568
NCI-H358	0.886	0.653	0.775	0.396	0.44	0.176	0.169	0.19	0.178	0.151	0.2	0.16	0.161	0.134	0.13	0.162	0.176	0.182	0.161	0.143
NCI-H522						1.06	0.763	0.917	0.703	0.595	0.814	0.869	0.845	0.652	0.648	0.799	1.02	0.764	1	0.522
NCI-H727	1.08	0.888	0.852	1.15	1.15						0.345	0.285	0.337	0.4	0.256					
NCI-H1299	1.03	1.06	0.969	0.858	0.789															
NCI-H1623	1.08	0.975	0.779	0.727	0.897						0.46	0.426	0.542	0.44	0.497					
NCI-H1648						1.01	1.13	0.828	0.964	0.78						0.76		0.853	0.678	0.55
NCI-H1703	0.312	0.326	0.332	0.337	0.264															
NCI-H1792						0.972	0.724	0.228	0.274	0.449	0.768	0.86	0.777		0.632	0.772	0.653	1.15	0.708	0.844

From the supplement of paper PMC10307832
